These results are taken from US20240197750A1, “CEFTIBUTEN DOSING REGIMENS” (QPEX Biopharma, Inc., priority 2021, published 2024).

Series [1] in a line: Pharmacokinetics of single and multiple oral doses of ceftibuten in healthy adult subjects. The following applies: for dose proportionality of exposure (Cmax, AUC0-12, AUC0-∞): doses of 400, 600 and 800 mg of ceftibuten. It is filed as in vivo, human. As to the method: (§1) A double-blind, randomized, placebo-controlled, sequential ascending single- and multiple dose study of ceftibuten in healthy adult subjects was conducted. There were four cohorts of 10 subjects each who received both single and multiple oral doses (8 active and 2 placebo).
Dose proportionality was examined graphically and using an ANOVA test of the dose-normalized Cmax, AUC0-12 and AUC0-∞ values. […] The AUC0-12 exposure of cis-ceftibuten is shown in FIG. 1 and the AUC0-12 exposure of trans-ceftibuten is shown in FIG. 2, showing that increases were dose proportional.

For series [2], the system named is 99 strains of Enterobacterales. Description: Resistance development study: mutant prevention concentration (MPC) of Compound 1 with ceftibuten. It is filed as cell-based. As to the method:
99 strains of Enterobacterales were used in resistance development studies using ceftibuten at 1 or 2 μg/ml in combination with various concentrations of the following β-lactamase inhibitor:
Compound 1 is described in PCT Publication No. WO 2018/005662, which is incorporated herein by reference in its entirety. Concentrations of Compound 1 included 1, 2, 4 and 8 μg/ml. The goal of the study was to identify the concentration of Compound 1 (MPC, mutant prevention concentration) that will prevent appearance of mutants at two different concentrations of ceftibuten.

A short description of series [3]: Safety of single and multiple ascending oral doses of ceftibuten in healthy adult subjects. It is filed as in vivo. On the procedure: as §1
The event of nausea occurred in one subject in the SAD period following single administration of ceftibuten and the event of […] occurred in one subject in the MAD period following administration of the ceftibuten. […] The nausea was considered to be moderate in severity and diarrhea considered to be mild in severity with both events deemed by the investigator to be related to the study drug. The nausea persisted from Day 1 dose (SAD) until after Day 4 morning dose (MAD), despite treatment with concomitant medications. […] The incidence of treatment-related TEAEs was similar in the 400 mg (1 [12.5%] of 8 subjects) and 600 mg (2 [25.0%] of 8 subjects) ceftibuten and Pooled Placebo groups (3 [37.5%] of 8 subjects). […] The highest incidence was reported in the highest ceftibuten dose (800 mg). The most common gastrointestinal TEAEs in the 800 mg group during the MAD period were nausea in 4 out of 16 subjects (25.0%), diarrhea in 4 of 16 (25.0%), abdominal pain in 3 of 16 (18.8%), upper abdominal pain in 3 of 16 (18.8%) and abdominal discomfort in 2 of 16 subjects (12.5%). Most Gastrointestinal Disorder TEAEs were transient and mild in severity with no intervention required. […] All events were asymptomatic, resolved spontaneously after the completion of study treatment, and were not associated with elevations of alkaline phosphatase or bilirubin. • There was no trend in abnormalities that were NCS in hematology, coagulation, or urinalysis parameters.

Where [4] appears, read: multiple oral doses 400 mg ceftibuten BID.
Where [5] appears, read: multiple oral doses 600 mg ceftibuten BID.
Where [6] appears, read: multiple oral doses 800 mg ceftibuten BID.
[7] abbreviates: single oral dose 400 mg ceftibuten.
Setting [8] is: single oral dose 600 mg ceftibuten.
Where [9] appears, read: single oral dose 800 mg ceftibuten.

For the compound `Nc1nc(/C(=C/CC(=O)O)C(=O)N[C@@H]2C(=O)N3C(C(=O)O)=CCS[C@H]23)cs1` (relative stereo) [cis-ceftibuten], the renal clearance in series [1] (400-800 mg ceftibuten oral) was in the range of 2.9 to 4.2 L/h. The terminal half-life in series [1] (400-800 mg ceftibuten oral) lay in the range of 2.3 to 3.1 h. For the same compound, the “time of peak plasma concentration post-dose” value in series [1] (400-800 mg ceftibuten oral) lay within 2.3 to 3.0 h. In addition, the total body clearance in series [1] (400-800 mg ceftibuten oral) lay within 3.9 to 5.0 L/h. The “urinary recovery, % of the administered dose” value in series [1] (after multiple doses) is 75.8-100%; in series [1] (after single doses), 59.5-86.9%. For the same compound, the “dose proportionality of exposure (Cmax, AUC0-12, AUC0-∞)” value in series [1] was “increased proportionally”. For the same compound, the “mean maximum plasma concentration” value in series [1] (setting [4]) was 21.7 µg/mL; in series [1] (setting [5]) it was 28.1 µg/mL; in series [1] (setting [6]), 38.8 µg/mL; in series [1] (setting [7]), 17.6 µg/mL; in series [1] (setting [8]) it was 24.1 µg/mL; in series [1] (setting [9]), 28.1 µg/mL.

`Nc1nc(/C(=C\CC(=O)O)C(=O)N[C@@H]2C(=O)N3C(C(=O)O)=CCS[C@H]23)cs1` (relative stereo) [trans-ceftibuten] gave a terminal half-life in series [1] (400-800 mg ceftibuten oral) of 3.0 to 3.6 h. Besides, in series [1] (400-800 mg ceftibuten oral), the “time of peak plasma concentration post-dose” value fell in the range of 3.3 to 4.8 h. Also, the “urinary recovery, % of the administered dose” value was 14.1-16.8% in series [1] (after multiple doses) and 9.3-12.5% in series [1] (after single doses). Also, the “dose proportionality of exposure (Cmax, AUC0-12, AUC0-∞)” value in series [1] is recorded as “increased proportionally”. Moreover, the “mean maximum plasma concentration” value in series [1] (setting [4]) was 1.4 µg/mL; in series [1] (setting [5]), 1.9 µg/mL; in series [1] (setting [6]), 2.8 µg/mL; in series [1] (setting [7]) it was 1.1 µg/mL; in series [1] (setting [8]) it was 1.5 µg/mL; in series [1] (setting [9]) it was 2.2 µg/mL.

As to `O=C([O-])c1c(F)ccc2c1O[B-](O)(O)[C@@H]1C[C@H]21.[Na+].[Na+]` [Compound 1], the “% Strains with Compound 1 MPC <= 4 ug/ml” value in series [2] (ceftibuten at 1 μg/ml, strains with Ceftibuten/Compound 1 MIC 0.125 (20 strains)) worked out at 90.0%; in series [2] (ceftibuten at 1 μg/ml, strains with Ceftibuten/Compound 1 MIC 0.25 (16 strains)), 56.3%; in series [2] (ceftibuten at 1 μg/ml, strains with Ceftibuten/Compound 1 MIC 0.5 (14 strains)), 21.4%; in series [2] (ceftibuten at 1 μg/ml, strains with Ceftibuten/Compound 1 MIC 1 (12 strains)), 8.3%; in series [2] (ceftibuten at 1 μg/ml, strains with Ceftibuten/Compound 1 MIC 2 (7 strains)), 28.6%; in series [2] (ceftibuten at 1 μg/ml, strains with Ceftibuten/Compound 1 MIC <=0.06 (30 strains)) it was 96.7%. The “% Strains with Compound 1 MPC <= 4 ug/ml” value in series [2] (ceftibuten at 2 μg/ml, strains with Ceftibuten/Compound 1 MIC 0.125 (20 strains)) is listed as 95.0%; in series [2] (ceftibuten at 2 μg/ml, strains with Ceftibuten/Compound 1 MIC 0.25 (16 strains)) it was 87.5%; in series [2] (ceftibuten at 2 μg/ml, strains with Ceftibuten/Compound 1 MIC 0.5 (14 strains)), 57.1%; in series [2] (ceftibuten at 2 μg/ml, strains with Ceftibuten/Compound 1 MIC 1 (12 strains)), 16.7%; in series [2] (ceftibuten at 2 μg/ml, strains with Ceftibuten/Compound 1 MIC 2 (7 strains)), 28.6%; in series [2] (ceftibuten at 2 μg/ml, strains with Ceftibuten/Compound 1 MIC <=0.06 (30 strains)), 100.0%.

On to `Nc1nc(/C(=C/CC(=O)O)C(=O)N[C@@H]2C(=O)N3C(C(=O)O)=CCS[C@H]23)cs1` [ceftibuten], for which, in series [3] (MAD period, 400-800 mg BID), the “frequency of reported TEAEs versus dose” value is listed as “did not increase with increasing ceftibuten dose”. Besides, the “serious, severe, life-threatening TEAEs or TEAEs resulting in death” value in series [3] (SAD and MAD periods) is “no serious, severe, life-threatening TEAEs, or TEAEs resulting in death”. Besides, the “frequency of reported TEAEs versus dose” value in series [3] (SAD period, 400-800 mg) was “did not increase with increasing ceftibuten dose”. Also, in series [3] (human, in vivo), the ALT elevations result was “incidence and severity of which did not increase with increasing ceftibuten dose”; the “abnormalities in ECG parameters or physical examination” value is listed as “no CS abnormalities”; the “number of TEAEs reported” value was determined as 44; the “severity of TEAEs” value is given as “All TEAEs were mild, regardless of causality, with the exception of 2 TEAEs”. Moreover, the “vital sign parameters (blood pressure, pulse rate, body temperature, respiratory rate)” value in series [3] (human, in vivo) is given as “no trends in changes from Baseline”.
